# Source: publication PMC3988085, “In Vitro Metabolism of 20(R)-25-Methoxyl-Dammarane-3, 12, 20-Triol from Panax notoginseng in Human, Monkey, Dog, Rat, and Mouse Liver Microsomes” (PLoS ONE, 2014)
# Assays:
# CYP3A4 = CYP3A4 (Homo sapiens, UniProt P08684); assay: Inhibition of CYP3A4 catalytic activity by 25(R)-OCH3-PPD; type: in vitro ADME
# [1] = rat, in vivo, 10 mg/kg; cited from earlier work
# [2] = system: human liver microsomes (HLM); assay: Metabolite formation in human liver microsomes, 60 min; type: in vitro ADME; details: HLM 1 mg/ml, 50 µM 25(R)-OCH3-PPD, NADPH
# Method: (§1) 25(R)-OCH3-PPD were incubated in hepatic microsomes to examine the potential P450-mediated metabolism. Stock solutions of 2 mM 25(R)-OCH3-PPD was prepared in methanol. The final methanol concentration in the incubation was 2.5% (v/v). The liver microsomes were carefully thawed on ice before the experiment.
# (§2) For NADPH dependent oxidative metabolism study, the reaction media contained 1 mg/ml of microsomal proteins, 10 mM G-6-P, 10 mM MgCl2, 1 U/ml G-6-PDH, 50 µM concentration of 25(R)-OCH3-PPD in potassium phosphate buffer (pH 7.4; 0.1 M) in a total volume of 200 µl. Negative control incubations containing no NADPH-regenerating system were conducted. All incubations were performed at 37°C in a shaking water bath for 60 min.
# (§3) After 5 min preincubation at 37°C, the incubation reactions were initiated with the addition of microsome proteins. After undergoing incubation for 60 min, the reactions were terminated with an equal volume of ice-cold acetonitrile and 10 µl diazepam (5 µg/ml, internal standard) was added. This sample was vortex-mixed and centrifuged at 14,000 g for 5 min. […] The residue was reconstituted in 100 µl of methanol with 0.1% formic acid, centrifuged 10 min at 18000 rpm and then an aliquot 5 µL of the supernatant was directly injected onto the HPLC-MS system for quanlitative or quantitative analysis.
# [3] = system: dog liver microsomes (DLM); assay: Metabolite formation in dog liver microsomes, 60 min; type: in vitro ADME, beagles; details: DLM 1 mg/ml, 50 µM 25(R)-OCH3-PPD, NADPH
# Method: as §1, §2, §3
# [4] = system: rat liver microsomes (RLM); assay: Metabolite formation in rat liver microsomes, 60 min; type: in vitro ADME, Sprague-Dawley rats; details: RLM 1 mg/ml, 50 µM 25(R)-OCH3-PPD, NADPH
# Method: as §1, §2, §3
# [5] = system: mouse liver microsomes (MLM); assay: Metabolite formation in mouse liver microsomes, 60 min; type: in vitro ADME, CD-1 mice; details: MLM 1 mg/ml, 50 µM 25(R)-OCH3-PPD, NADPH
# Method: as §1, §2, §3
# [6] = system: cynomolgus monkey liver microsomes (CyLM); assay: Metabolite formation in monkey liver microsomes, 60 min; type: in vitro ADME; details: CyLM 1 mg/ml, 50 µM 25(R)-OCH3-PPD, NADPH
# Method: as §1, §2, §3
# CYP3A = assay: Chemical inhibition study in human hepatic microsomes (ketoconazole); type: in vitro ADME
# Method: The chemical inhibition study was performed by adding each of the specific inhibitors of P450 enzymes into the incubation of 25(R)-OCH3-PPD (3 or 10 µM) in 0.25 mg/ml HLM incubation systems containing an NADPH-regenerations system as described above. The chemical inhibitors and concentration were selected on the basis of previous reports and are as follows: α-naphthoflavone (10.0 µM) for CYP1A2, quercetin (10 µM) for CYP2C8, sulfaphenazole (10.0 µM) for CYP2C9, ticlopidine (5 µM) for CYP2C19, quinidine (10.0 µM) CYP2D6, diethyl dithiocarbamate (20 µM) for CYP2E1, and ketoconazole (0.1, 0.25, 0.5, 1 and 5 µM) for CYP3A.
# The inhibitors were dissolved in dimethyl sulfoxide, and the final concentration of dimethyl sulfoxide in the incubation was 1% (v/v). The final incubation volume was 200 µl. Microsomes were preincubated for 5 min with a NADPH-regenerating system at 37°C, the reactions were initiated with the addition of 25(R)-OCH3-PPD and inhibitor. The reactions were terminated with an equal volume of ice-cold acetonitrile after 30 min of incubation. Parallel incubations without chemical inhibitors served as control. Samples were prepared as mentioned above to measure the concentration of parent and the metabolites by HPLC-MS/MS analysis.
# Sequence of CYP3A4 (P08684 whole entry): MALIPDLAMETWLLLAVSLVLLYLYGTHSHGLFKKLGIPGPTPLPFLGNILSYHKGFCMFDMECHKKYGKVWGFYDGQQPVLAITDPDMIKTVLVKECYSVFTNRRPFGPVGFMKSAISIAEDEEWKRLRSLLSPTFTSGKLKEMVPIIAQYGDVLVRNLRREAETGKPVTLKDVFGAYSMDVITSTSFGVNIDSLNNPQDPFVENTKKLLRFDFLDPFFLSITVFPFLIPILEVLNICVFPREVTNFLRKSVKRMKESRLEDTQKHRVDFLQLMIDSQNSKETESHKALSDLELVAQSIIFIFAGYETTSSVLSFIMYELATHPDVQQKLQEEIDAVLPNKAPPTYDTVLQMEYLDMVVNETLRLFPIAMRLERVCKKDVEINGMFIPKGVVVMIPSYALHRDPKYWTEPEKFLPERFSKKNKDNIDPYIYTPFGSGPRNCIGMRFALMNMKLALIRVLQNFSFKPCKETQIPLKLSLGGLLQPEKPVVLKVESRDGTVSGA
compound,measurement,setting,value
"COC(C)(C)CCC[C@@](C)(O)C1CC[C@]2(C)C1[C@H](O)CC1[C@@]3(C)CC[C@H](O)C(C)(C)C3CC[C@]12C (stereo partly drawn) [25(R)-OCH3-PPD, 20(R)-25-methoxyl-dammarane-3β, 12β, 20-triol]",inhibition of the CYP3A4 catalytic activity,CYP3A4,NADPH and concentration-dependent
"COC(C)(C)CCC[C@](C)(O)[C@H]1CC[C@]2(C)[C@@H]1[C@H](O)C[C@@H]1[C@@]3(C)CC[C@H](O)C(C)(C)[C@@H]3CC[C@]12C [25(S)-OCH3-PPD, 20(S)-25-methoxyl-dammarane-3beta, 12beta, 20-triol]",absolute bioavailability,[1],19.7%
CC(C)(O)CCC[C@@](C)(O)C1CC[C@]2(C)C1[C@H](O)CC1[C@@]3(C)CC[C@H](O)C(C)(C)C3CC[C@]12C (stereo partly drawn) [Metabolite M1],relative amount of metabolite formed,[2],minor metabolite
same,relative amount of metabolite formed,[3],intermediate relative amount
same,relative amount of metabolite formed,[4],dominant metabolite
same,relative amount of metabolite formed,[5],dominant metabolite
same,relative amount of metabolite formed,[6],minor metabolite
CC(=O)N1CCN(c2ccc(OCC3COC(Cn4ccnc4)(c4ccc(Cl)cc4Cl)O3)cc2)CC1 (stereo not drawn) [ketoconazole],effect on the oxidative metabolism of 25(R)-OCH3-PPD,"CYP3A; HLM 0.25 mg/ml, 25(R)-OCH3-PPD 10 µM, 30 min",significant inhibitory effect
same,inhibition of formation of M5,"CYP3A; HLM, ketoconazole 0.1 µM",completely
same,effect on formation of M1 and M6,"CYP3A; HLM, ketoconazole 5 µM",inhibited
same,"effect on formation of M2, M3, M4, M5, M7","CYP3A; HLM, ketoconazole 0.1-5 µM, concentration dependent",inhibited
same,effect on formation of M1 and M6,"CYP3A; HLM, ketoconazole 0.1–1 µM",activated
